Results published in patent US20240294541A1, “COMPOUNDS CONSTITUTING C20-MODIFIED SALINOMYCIN DERIVATIVES, A METHOD FOR OBTAINING THE SAME, A COMPOSITION CONTAINING THE SAME AND A USE OF SAID COMPOUNDS” (FILECLO SPOLKA Z OGRANICZONA ODPOWIEDZIALNOSCIA, priority 2021, published 2024).
Where “and” joins values, the source holds several entries; their conditions need not be identical. Equal entries are not always repeated. Where two headings read alike, the source gives them in different places.

Experiments:
Format in all cases: cell-based
[1] = test system: NCI-H23 (human lung cancer); assay: In vitro cytotoxicity, SRB assay, NCI-H23; conditions: 72 h with compound, SRB, n/a = non-active compound, read-out: NCI-H23 IC50
[2] = test system: PLC/PRF/5 (human liver cancer); assay: cells; conditions: for SI PLC/PRF/5: selectivity coefficient vs normal BALB/3T3 fibroblasts
[3] = test system: A2780 (human ovarian cancer); assay: In vitro cytotoxicity, SRB assay, A2780; conditions: 72 h with compound, SRB, n/a = non-active compound, read-out: A2780 IC50
[4] = test system: A375 (human melanoma); assay: In vitro cytotoxicity, SRB assay, A375; conditions: 72 h with compound, SRB, n/a = non-active compound, read-out: A375 IC50
[5] = test system: PFSK-1 (malignant primitive neuroectodermal tumour); assay: In vitro cytotoxicity, SRB assay, PFSK-1; conditions: 72 h with compound, SRB, n/a = non-active compound, read-out: PFSK-1 IC50
[6] = test system: Hs294T (human melanoma); assay: cells; conditions: for SI Hs294T: selectivity coefficient vs normal BALB/3T3 fibroblasts
[7] = test system: NCI-H358 (human lung cancer); assay: cells; conditions: Table 4; for IC50: NCI-H358 human lung cancer cells, read-out: IC50 (nM) NCI-H358; for SI NCI-H358: selectivity coefficient vs normal BALB/3T3 fibroblasts
[8] = test system: MIA PaCa-2 (human pancreatic cancer); assay: cells; conditions: for SI MIA PaCa-2: selectivity coefficient vs normal BALB/3T3 fibroblasts
[9] = test system: SNU-16 (human gastric cancer); assay: cells; conditions: for SI SNU-16: selectivity coefficient vs normal BALB/3T3 fibroblasts
[10] = test system: KG-1 (human acute myeloid leukaemia); assay: In vitro cytotoxicity, MTT assay, KG-1; conditions: Homo sapiens; 72 h with compound, MTT; n/a = non-active compound
[11] = test system: MV-4-11 (human biphenotypic leukaemia); assay: In vitro cytotoxicity, MTT assay, MV-4-11
[12] = test system: BALB/3T3 (normal mouse fibroblasts); assay: In vitro cytotoxicity, SRB assay, normal BALB/3T3 fibroblasts
[13] = test system: A2780Cis (cisplatin-resistant human ovarian cancer); assay: In vitro cytotoxicity, SRB assay, A2780Cis
[14] = Table 4, PLC/PRF/5 human liver cancer cells, read-out: IC50 (nM) PLC/PRF/5
[15] = Hs 294T, Table 4, Hs294T human melanoma cells, read-out: IC50 (nM) Hs294T
[16] = Table 4, MIA PaCa-2 human pancreatic cancer cells, read-out: IC50 (nM) MIA PaCa-2
[17] = Table 4, SNU-16 human gastric cancer cells, read-out: IC50 (nM) SNU-16
[18] = Homo sapiens, MV4-11, read-out: IC50 (nM) MV4-11
[19] = Table 4, BALB/3T3 normal mouse fibroblasts, read-out: IC50 (nM) BALB3T3 normal cells
[20] = Homo sapiens, A2780cis, read-out: IC50 (nM) A2780Cis

Row | SMILES | IC50 [2, 14] | IC50 [6, 15] | IC50 [7] | IC50 [8, 16] | IC50 [9, 17] | SI MV4-11 [11] | IC50 [11, 18] | SI PLC/PRF/5 ([2]; Table 4) | SI Hs294T ([6]; Table 4) | SI NCI-H358 [7] | IC50 [12, 19] | SI MIA PaCa-2 ([8]; Table 4) | SI SNU-16 ([9]; Table 4) | SI A2780Cis [13] | IC50 [13, 20] | further results
1 | CC[C@@H](C(=O)[C@@H](C)[C@@H](O)[C@H](C)[C@@H]1O[C@@H]([C@@H](CC)C(=O)O)CC[C@@H]1C)[C@H]1O[C@]2(C=C[C@@H](O)[C@]3(CC[C@@](C)([C@H]4CC[C@](O)(CC)[C@H](C)O4)O3)O2)[C@H](C)C[C@@H]1C [FLC-00001 (SAL), Salinomycin] | 504 nM | 2160 nM | 600 nM | 304 nM | 145 nM | – | – | – | – | – | – | – | – | – | – | IC50 ([1]; Homo sapiens, NCI-H23): 0.356 µM; IC50 ([2]; Homo sapiens, PLC-PRF-5, 72 h with compound, SRB, n/a = non-active compound, read-out: PLC/PRF/5 IC50): 504 nM; IC50 ([3]; Homo sapiens, A2780): 0.12 µM; IC50 ([4]; Homo sapiens, A-375): 0.574 µM; IC50 ([5]; Homo sapiens, PFSK-1): 0.336 µM; IC50 ([6]; Homo sapiens, Hs 294T, 72 h with compound, SRB, n/a = non-active compound, read-out: Hs294T IC50): 2160 nM; IC50 ([8]; Homo sapiens, MIA PaCa-2, 72 h with compound, SRB, n/a = non-active compound, read-out: MIA PaCa-2 IC50): 304 nM; IC50 ([9]; Homo sapiens, SNU-16, 72 h with compound, MTT, n/a = non-active compound, read-out: SNU-16 IC50): 145 nM; IC50 [10]: 0.429 µM
2 | CC[C@@H](C(=O)[C@@H](C)[C@@H](O)[C@H](C)[C@@H]1O[C@@H]([C@@H](CC)C(=O)O)CC[C@@H]1C)[C@H]1O[C@]2(C=C[C@@H](NC(=O)OCCOCCCl)[C@]3(CC[C@@](C)([C@H]4CC[C@](O)(CC)[C@H](C)O4)O3)O2)[C@H](C)C[C@@H]1C [FLC-00454-1•Na] | 63.1 nM | 1040 nM | 434 nM | 45.2 nM | 103 nM | 17.8 | 17.6 nM | 5.0 | 0.3 | 0.72 | 313 nM | 6.9 | 3.0 | 58.9 | 5.32 nM | –
3 | CC[C@@H](C(=O)[C@@H](C)[C@@H](O)[C@H](C)[C@@H]1O[C@@H]([C@@H](CC)C(=O)O)CC[C@@H]1C)[C@H]1O[C@]2(C=C[C@@H](NC(=O)Nc3c(F)c(F)c(F)c(F)c3F)[C@]3(CC[C@@](C)([C@H]4CC[C@](O)(CC)[C@H](C)O4)O3)O2)[C@H](C)C[C@@H]1C [FLC-00428-1•Na] | 7.85 nM | 173 nM | 57.3 nM | 36.9 nM | 114 nM | 182.9 | 1.34 nM | 31.1 | 1.4 | 4.27 | 244 nM | 6.6 | 2.1 | 56.0 | 4.36 nM | –
4 | CC[C@@H](C(=O)[C@@H](C)[C@@H](O)[C@H](C)[C@@H]1O[C@@H]([C@@H](CC)C(=O)O)CC[C@@H]1C)[C@H]1O[C@]2(C=C[C@@H](NC(=O)C(=O)NC3CC3)[C@]3(CC[C@@](C)([C@H]4CC[C@](O)(CC)[C@H](C)O4)O3)O2)[C@H](C)C[C@@H]1C [FLC-00441-1•Na] | 208 nM | 969 nM | 930 nM | 373 nM | 2600 nM | 42.5 | 26.5 nM | 5.4 | 1.2 | 1.21 | 1120 nM | 3.0 | 0.4 | 25.7 | 43.8 nM | –
5 | CC[C@@H](C(=O)[C@@H](C)[C@@H](O)[C@H](C)[C@@H]1O[C@@H]([C@@H](CC)C(=O)O)CC[C@@H]1C)[C@H]1O[C@]2(C=C[C@@H](NC(=O)C(=O)NCC3CC3)[C@]3(CC[C@@](C)([C@H]4CC[C@](O)(CC)[C@H](C)O4)O3)O2)[C@H](C)C[C@@H]1C [FLC-00442-1•Na] | 53.9 nM | 1710 nM | 340 nM | 102 nM | 1120 nM | 38.9 | 19.4 nM | 14.0 | 0.4 | 2.22 | 754 nM | 7.4 | 0.7 | 32.3 | 23.3 nM | –
6 | CC[C@@H](C(=O)[C@@H](C)[C@@H](O)[C@H](C)[C@@H]1O[C@@H]([C@@H](CC)C(=O)O)CC[C@@H]1C)[C@H]1O[C@]2(C=C[C@@H](NC(=O)C3CCCC3)[C@]3(CC[C@@](C)([C@H]4CC[C@](O)(CC)[C@H](C)O4)O3)O2)[C@H](C)C[C@@H]1C [FLC-00455-1•Na] | 60.7 nM | 140 nM | 54.5 nM | 33 nM | 165 nM | 112.3 | 2.87 nM | 5.3 | 2.3 | 5.91 | 323 nM | 9.8 | 2.0 | 232.6 | 1.39 nM | –
7 | CC[C@@H](C(=O)[C@@H](C)[C@@H](O)[C@H](C)[C@@H]1O[C@@H]([C@@H](CC)C(=O)O)CC[C@@H]1C)[C@H]1O[C@]2(C=C[C@@H](NC(=O)OCCF)[C@]3(CC[C@@](C)([C@H]4CC[C@](O)(CC)[C@H](C)O4)O3)O2)[C@H](C)C[C@@H]1C [FLC-00437-1•Na] | 42.3 nM | 264 nM | 184 nM | 45.7 nM | 342 nM | 37.5 | 5.11 nM | 4.5 | 0.7 | 1.04 | 192 nM | 4.2 | 0.6 | 40.8 | 4.7 nM | –
8 | CC[C@@H](C(=O)[C@@H](C)[C@@H](O)[C@H](C)[C@@H]1O[C@@H]([C@@H](CC)C(=O)O)CC[C@@H]1C)[C@H]1O[C@]2(C=C[C@@H](NC(=O)c3ccccc3Cl)[C@]3(CC[C@@](C)([C@H]4CC[C@](O)(CC)[C@H](C)O4)O3)O2)[C@H](C)C[C@@H]1C [FLC-00462-1•Na] | 63.8 nM | 1810 nM | 397 nM | 52 nM | 339 nM | 40.4 | 13.7 nM | 8.6 | 0.3 | 1.39 | 552 nM | 10.6 | 1.6 | 24.5 | 22.5 nM | –
9 | N.N.[Cl][Pt][Cl] [Cisplatin, cisplatin, reference compound] | 1580 nM | – | 2550 nM | 2360 nM | 2330 nM | – | – | – | – | – | 1390 nM | – | – | – | – | IC50 [1]: 2.32 µM; IC50 ([11]; read-out: IC50 (nM) MV4-11): 166 nM; IC50 ([2]; 72 h with compound, SRB, n/a = non-active compound, read-out: PLC/PRF/5 IC50): 1580 nM; IC50 [3]: 0.178 µM; IC50 [4]: 0.41 µM; IC50 [5]: 1.51 µM; IC50 ([6]; 72 h with compound, SRB, n/a = non-active compound, read-out: Hs294T IC50): 736 nM; IC50 ([6]; Table 4, Hs294T human melanoma cells, read-out: IC50 (nM) Hs294T): 736 nM; IC50 ([12]; Table 5, BALB/3T3 normal mouse fibroblasts, read-out: IC50 (nM) BALB3T3 normal cells): 1390 nM; IC50 ([12]; normal cells, 72 h with compound, SRB, n/a = non-active compound, read-out: BALB/3T3 IC50): 1390 nM; IC50 ([8]; 72 h with compound, SRB, n/a = non-active compound, read-out: MIA PaCa-2 IC50): 2360 nM; IC50 ([9]; 72 h with compound, MTT, n/a = non-active compound, read-out: SNU-16 IC50): 2330 nM; A2780Cis RI [13]: 14.6; IC50 ([13]; read-out: A2780Cis IC50): 2610 nM; IC50 ([13]; read-out: IC50 (nM) A2780Cis): 2610 nM and 2870 nM
10 | CC[C@@H](C(=O)[C@@H](C)[C@@H](O)[C@H](C)[C@@H]1O[C@@H]([C@@H](CC)C(=O)O)CC[C@@H]1C)[C@H]1O[C@]2(C=C[C@@H](NC(=O)OCCOc3ccccc3)[C@]3(CC[C@@](C)([C@H]4CC[C@](O)(CC)[C@H](C)O4)O3)O2)[C@H](C)C[C@@H]1C [FLC-00460-1•Na] | 17.6 nM | 309 nM | 282 nM | 13.6 nM | 130 nM | 50.0 | 1.86 nM | 5.3 | 0.3 | 0.33 | 92.8 nM | 6.8 | 0.7 | 94.4 | 0.98 nM | –
